Like-named read-outs stand apart in the source and are kept apart here.
What was measured:
[1] = system: marine bacteria strain S4; assay: disc inhibition assay, strain S4; format: cell-based, Bacillus algicola; conditions: for zone of inhibition at 50 µg/disc: Guptibacillus algicola, S4, 24 h
Procedure: (§1) The disc inhibition assay was used. This assay is a conventional method routinely used for screening antibacterial compounds to determine degree of susceptibility to antibacterial compounds. The diameter of the zone of inhibition is proportional to the degree of susceptibility of the bacterial strain. The compounds were tested against 13 strains of marine bacteria isolated from Singapore coastal waters.
(§2) 13 strains of marine bacteria were isolated from fouling communities located in the coastal waters around Singapore. These were characterized in earlier studies and reported in Teo et al. (U.S. patent application Ser. No. 11/265,833) and Choong et al (in prep). In addition, four reference bacterial strains were added tested: Escherichia coli (Strain K12, ATCC 15222), E. coli (strain DH5a), Pseudomonas aeruginosa (strain LMG 12228; ATCC 15692) and P. putida (strain KT2440; ATCC 47054). All the bacteria were also tested against five antibiotics: ampicillin (AMP), tetracycline (TETR), erythromycin (ERY), chloramphenicol (CHL) and streptomycin (STREP).
(§3) Disks comprising the compounds to be tested were prepared as follows. The antibacterial assay, the pure compounds were made up to a concentration of 2 mgml^−1 in DMSO. 25 μl of the stock was pipetted onto each 6 mm sterile disc (Macherey-Nagel #484000) to obtain 50 μg of compound per disc. Equivalent volume of DMSO was used inoculated for the control.
(§4) For all disk inhibition assays, bacterial cultures were grown in marine broth (Pronadisa #1217.00). Sterile swabs dipped into the cultures were used to inoculate Marine Agar plates with a bacterial lawn by smearing the culture over the surface. After inoculating the plates, discs with antibiotics, pharmaceuticals or control blanks were placed on each plate. Each concentration of antibiotic or pharmaceutical was tested with two replicates. After the disks were placed on the agar surface, plates were incubated overnight in the dark at 35° C. After incubation, plates were examined for zones of inhibition or clearing around control and treated disks. The diameter of any zone of clearing or inhibition was measured using Vernier calipers. There were two replicates per treatment, and the average was taken.

[2] = system: marine bacteria strain S29; assay: disc inhibition assay, strain S29; format: cell-based, Bacillus hwajinpoensis; conditions: for zone of inhibition at 50 µg/disc: Guptibacillus hwajinpoensis, S29, 24 h
Procedure: as §1, §2, §3, §4

[3] = system: marine bacteria strain S3; assay: disc inhibition assay, strain S3; format: cell-based, Erythrobacter aquimaris; conditions: for zone of inhibition at 50 µg/disc: Qipengyuania aquimaris, S3, 24 h
Procedure: as §1, §2, §3, §4

[4] = system: marine bacteria strain S14; assay: disc inhibition assay, strain S14; format: cell-based, Vibrio probioticus; conditions: strain 14, 50 μg of compound per disc
Procedure: as §1, §2
(§5) Disks comprising the compounds to be tested were prepared as follows. The antibacterial assay, the pure compounds were made up to a concentration of 2 mgml^−1 in DMSO. […] Equivalent volume of DMSO was used inoculated for the control.
as §4

[5] = system: marine bacteria strain S10; assay: disc inhibition assay, strain S10; format: cell-based, Halobacillus trueperi; conditions: for zone of inhibition at 50 µg/disc: Halobacillus trueperi, S10, 24 h
Procedure: as §1, §2, §3, §4

[6] = system: marine bacteria strain S28; assay: disc inhibition assay, strain S28; format: cell-based, Arthrobacter protophormial; conditions: for zone of inhibition at 50 µg/disc: Arthrobacter, S28, 24 h
Procedure: as §1, §2, §3, §4

[7] = system: marine bacteria strain S9; assay: disc inhibition assay, strain S9; format: cell-based, Bacillus algicola; conditions: for zone of inhibition at 50 µg/disc: Guptibacillus algicola, S9, 24 h
Procedure: as §1, §2, §3, §4

[8] = system: marine bacteria strain S27; assay: disc inhibition assay, strain S27; format: cell-based, Tenacibaculum lutimaris; conditions: strain 27, 50 μg of compound per disc
Procedure: as §1, §2, §3, §4

[9] = system: marine bacteria strain S17; assay: disc inhibition assay, strain S17; format: cell-based, Gordonia terrae; conditions: for zone of inhibition at 50 µg/disc: Gordonia terrae, S17, 24 h
Procedure: as §1, §2, §3, §4

[10] = system: marine bacteria strain S1; assay: disc inhibition assay, strain S1; format: cell-based, Rhodovulum iodosum; conditions: for zone of inhibition: strain 1, 50 μg of compound per disc
Procedure: as §1, §2, §3, §4

[11] = system: marine bacteria strain S16; assay: disc inhibition assay, strain S16; format: cell-based, Pseudoalteromonas piscicida; conditions: for zone of inhibition at 50 µg/disc: Pseudoalteromonas piscicida, S16, 24 h; for antibacterial activity in words: strain S16
Procedure: as §1, §2, §3, §4

[12] = system: marine bacteria strain S30; assay: disc inhibition assay, strain S30; format: cell-based, Bacillus borophilicus; conditions: for zone of inhibition at 50 µg/disc: Bacillus, S30, 24 h
Procedure: as §1, §2, §3, §4

[13] = system: marine bacteria strain S18; assay: disc inhibition assay, strain S18; format: cell-based, Microbacterium esteraromaticum; conditions: for zone of inhibition at 50 µg/disc: Microbacterium esteraromaticum, S18, 24 h
Procedure: as §1, §2, §5, §4

[14] = strain 4, 50 μg of compound per disc
[15] = strain 29, 50 μg of compound per disc
[16] = strain 3, 50 μg of compound per disc, read-out: zone of inhibition
[17] = strain 10, 50 μg of compound per disc
[18] = strain 28, 50 μg of compound per disc
[19] = strain 9, 50 μg of compound per disc
[20] = strain 17, 50 μg of compound per disc
[21] = strain 16, 50 μg of compound per disc
[22] = strain 30, 50 μg of compound per disc
[23] = strain 18, 50 μg of compound per disc
[24] = strain 3, 50 μg of compound per disc
[25] = strain 10, 50 μg of compound per disc, read-out: zone of inhibition
[26] = strain 16, 50 μg of compound per disc, read-out: zone of inhibition

Row | SMILES | zone of inhibition [1, 14] | zone of inhibition [2, 15] | zone of inhibition [4] | zone of inhibition [5, 17] | zone of inhibition [6, 18] | zone of inhibition [7, 19] | zone of inhibition [8] | zone of inhibition [9, 20] | zone of inhibition [10] | zone of inhibition [11, 21] | zone of inhibition [12, 22] | zone of inhibition [13, 23] | zone of inhibition at 50 µg/disc [3] [mm] | zone of inhibition at 50 µg/disc [7] [mm] | zone of inhibition at 50 µg/disc [9] [mm] | zone of inhibition at 50 µg/disc [13] [mm] | zone of inhibition [3, 24] | zone of inhibition at 50 µg/disc [11, 26] [mm] | other results
1 | O=C(C(c1ccccc1)c1ccccc1)N1CCC(O)(c2ccc(Cl)cc2)CC1 [Compound 4.3] | − | − | − | − | − | − | − | − | − | − | − | − |  |  |  |  |  |  | zone of inhibition at 50 µg/disc [3, 16]: 2 to 5 mm
2 | CN(C)C(=O)C(CC[N+]1(C)CCC(O)(c2ccc(Cl)cc2)CC1)(c1ccccc1)c1ccccc1 (stereo not drawn) [Compound 4.7] |  |  | − |  |  |  | − |  | − |  |  |  | 5 to 10 | 5 to 10 | 2 to 5 | 2 to 5 |  |  | zone of inhibition at 50 µg/disc [1]: 5 to 10 mm; zone of inhibition at 50 µg/disc [2]: 5 to 10 mm; zone of inhibition at 50 µg/disc [5]: 5 to 10 mm; zone of inhibition at 50 µg/disc [6]: 5 to 10 mm; zone of inhibition at 50 µg/disc [11]: 2 to 5 mm; zone of inhibition at 50 µg/disc [12]: 2 to 5 mm
3 | CN(C)C(=O)C(CC[N+]1(O)CCC(O)(c2ccc(Cl)cc2)CC1)(c1ccccc1)c1ccccc1 (stereo not drawn) [Compound 5.1] | − | − | − | − | − | − | − |  | − |  | − | − | 2 to 5 |  | 2 to 5 |  |  |  | zone of inhibition at 50 µg/disc [11]: 2 to 5 mm
4 | COC1(c2ccc(Cl)cc2)CC[N+](C)(CCC(C(=O)N(C)C)(c2ccccc2)c2ccccc2)CC1 (stereo not drawn) [Compound 5.2, N,O-dimethyl Loperamide] |  |  | − |  |  |  | − |  |  |  |  |  | 5 to 10 | 5 to 10 | 2 to 5 | > 10 |  |  | zone of inhibition at 50 µg/disc [1]: 5 to 10 mm; zone of inhibition at 50 µg/disc [2]: 5 to 10 mm; zone of inhibition at 50 µg/disc [5]: 5 to 10 mm; zone of inhibition at 50 µg/disc [6]: 5 to 10 mm; zone of inhibition at 50 µg/disc ([10]; Rhodovulum iodosum, S1): 2 to 5 mm; antibacterial activity in words ([10]; strain S1, text): had activity; zone of inhibition at 50 µg/disc [11]: 2 to 5 mm; zone of inhibition at 50 µg/disc [12]: 5 to 10 mm
5 | CC(=O)OC1(c2ccc(Cl)cc2)CCN(CCC(C(=O)N(C)C)(c2ccccc2)c2ccccc2)CC1 [Compound 5.3] |  |  | − |  |  |  | − |  | − | − |  |  | 5 to 10 | 2 to 5 | 2 to 5 | 2 to 5 |  |  | zone of inhibition at 50 µg/disc [1]: 2 to 5 mm; zone of inhibition at 50 µg/disc [2]: 2 to 5 mm; zone of inhibition at 50 µg/disc [5]: 5 to 10 mm; zone of inhibition at 50 µg/disc [6]: 2 to 5 mm; zone of inhibition at 50 µg/disc [12]: 2 to 5 mm
6 | CN(C)C(=O)C(CCN1CCCCC1)(c1ccccc1)c1ccccc1 [Compound 9.1, N, N-Dimethyl-2,2-diphenyl-4-(piperidin-1-yl)butanamide] | − | − | − | − | − |  | − | − | − | − | − |  |  | 2 to 5 |  | 2 to 5 | − |  | 
7 | O=C(C(c1ccccc1)c1ccccc1)N1CCC(O)CC1 [Compound 9.3] | − | − | − |  | − | − | − | − | − |  | − | − |  |  |  |  | − | 2 to 5 | zone of inhibition at 50 µg/disc [5, 25]: 2 to 5 mm
8 | O=C(Cc1ccccc1)N1CCCCC1 [Compound 10.5] | − | − | − | − | − | − | − | − | − |  | − | − |  |  |  |  | − | 5 to 10 | 
9 | CCCCCC(=O)N1CCCCC1 [Compound 11.1] | − | − | − | − | − | − | − | − | − |  | − | − |  |  |  |  | − | 5 to 10 | antibacterial activity in words [11]: susceptible
10 | CCCCCC(=O)N(C)C [Compound 11.2] | − | − | − | − | − | − | − | − | − |  | − | − |  |  |  |  | − | 2 to 5 | antibacterial activity in words [11]: susceptible
11 | C/C=C/C=C/C(=O)N1CCCCC1 [Compound 11.4] |  |  |  |  |  |  |  |  |  |  |  |  |  |  |  |  |  |  | antibacterial activity in words [11]: susceptible
12 | CCCCC(C(=O)N1CCCCC1)c1ccccc1 (stereo not drawn) [Compound 12.1, 2-Phenyl-1-(piperidin-1-yl)hexan-1-one] |  |  | − |  |  |  |  |  | − | − |  |  |  |  |  |  |  |  | zone of inhibition at 50 µg/disc ([1]; strain 4, 50 μg of compound per disc, read-out: zone of inhibition): 2 to 5 mm; zone of inhibition at 50 µg/disc ([2]; strain 29, 50 μg of compound per disc, read-out: zone of inhibition): 2 to 5 mm; zone of inhibition at 50 µg/disc [3, 16]: 5 to 10 mm; zone of inhibition at 50 µg/disc [5, 25]: 2 to 5 mm; zone of inhibition at 50 µg/disc ([6]; strain 28, 50 μg of compound per disc, read-out: zone of inhibition): 2 to 5 mm; zone of inhibition at 50 µg/disc ([7]; strain 9, 50 μg of compound per disc, read-out: zone of inhibition): 2 to 5 mm; zone of inhibition at 50 µg/disc ([8]; Tenacibaculum lutimaris, S27, 24 h, read-out: zone of inhibition): 2 to 5 mm; zone of inhibition at 50 µg/disc ([9]; strain 17, 50 μg of compound per disc, read-out: zone of inhibition): 2 to 5 mm; zone of inhibition at 50 µg/disc ([12]; strain 30, 50 μg of compound per disc, read-out: zone of inhibition): 2 to 5 mm; zone of inhibition at 50 µg/disc ([13]; strain 18, 50 μg of compound per disc, read-out: zone of inhibition): 2 to 5 mm
